Read-outs that look alike come from different tables or passages of the source.
Legend:
[1] = test system: pRb in Kuramochi cells; assay: Western blot pRb; format: cell-based, human; conditions: 30-1000 nM, 24 hours
Protocol: An independent human ovarian carcinoma cell line, Kuramochi human ovarian carcinoma, was grown in RPMI-1640/1× Glutamax/10% fetal bovine serum and was plated at 300,000 cells/well in Corning 6 well tissue culture treated plates. Cells were incubated at 37° C. for 24 hours prior to addition of 2 replicates of 0.1% DMSO control and 1 replicate for each treatment. […] Cells were collected by washing each well twice with cold PBS, then scraping cells in the presence of 150 μL cold RIPA with protease and phosphatase inhibitors. Lysates were clarified by centrifugation at 14 kxg for 10 min at 4° C. and supernatants transferred to clean tubes. A BCA assay was performed to determine the protein concentration of each lysate. 30 μg of protein was mixed with sample buffer and reducing agent before being run on a 4-12% SDS-PAGE. Protein was transferred to a nitrocellulose membrane and blocked with LI-COR blocking buffer for 1 hour. Membranes were incubated overnight in primary antibody at 4° C. Following 3 washes with TBST, membranes were incubated for 45 minutes in LI-COR secondary antibodies. Following 2 washes in TBST, and one TBS wash, membranes were scanned using a LI-COR OdysseyCLx. Image studio was used for image analysis.

[2] = test system: OVCAR3 human ovary carcinoma CDX; assay: OVCAR3 cell line-derived xenograft (tumor volume, body weight, tumor Western blot); format: in vivo, mice
Protocol: 10 million OVCAR3 human ovary carcinoma cells were injected into athymic nude female mice. The study was initiated at a mean tumor volume of approximately 100-200 mm^3. […] The test agents were delivered at 5 mL/kg by oral gavage.
Tumors from FIG. 146A were harvested at the end of study and snap frozen. A small piece of each tumor was removed while frozen and lysed with 150 μL cold RIPA with protease and phosphatase inhibitors while being homogenized with mortar and pestle. Lysates were clarified by centrifugation at 14 kxg for 10 min at 4° C. and supernatants transferred to clean tubes. A BCA assay was performed to determine the protein concentration of each lysate. 30 μg of protein was mixed with sample buffer and reducing agent before being run on a 4-12% SDS-PAGE. Protein was transferred to a nitrocellulose membrane and blocked with LI-COR blocking buffer for 1 hour. Membranes were incubated overnight in primary antibody at 4° C. Following 3 washes with TBST, membranes were incubated for 45 minutes in LI-COR secondary antibodies. Following 2 washes in TBST, and one TBS wash, membranes were scanned using a LI-COR OdysseyCLx. Image studio was used for image analysis.

[3] = Functional observational battery in 28-day repeat-dose toxicity study; format: in vivo, rats; conditions: any dose level
From the text: Safety pharmacology studies described more fully below included a functional observational battery (FOB) testing in a 28-day repeat-dose toxicity study in rats, electrocardiogram (ECG) evaluations in a 28-day repeat-dose toxicity study in dogs, and a single-dose respiratory safety pharmacology study in rats.

[4] = test system: OVCAR-3 xenograft tumor; assay: OVCAR-3 xenograft tumor fragment model (tumor growth, survival); format: in vivo, mice; conditions: 100 mpk twice daily
Protocol: OVCAR-3 xenograft tumor fragments were harvested from host animals and implanted into immune-deficient mice (CR1:NU(NCr)-Fox1^nu). The study was initiated at a mean tumor volume of approximately 175-300 mm^3. […] The test agents were delivered at 10 mL/kg by oral gavage. […] Individual replicate values over the course of the experiment are shown in FIG. 19A, extended out to 42 days post-study initiation.

[5] = test system: CCNE1, CCNE2 in Hs68 cells; assay: Western blot cell cycle proteins; format: cell-based, human; conditions: 24 hours
Protocol: The H69 and H526 human lung carcinoma cell lines were grown in RPMI-1640/1× Glutamax/10% fetal bovine serum while the Hs68 Normal foreskin fibroblast cell line was grown in DMEM-high glucose/1× Glutamax/10% fetal bovine serum. […] Cells were collected by washing each well twice with cold PBS, then scraping cells in the presence of 150 μL cold RIPA with protease and phosphatase inhibitors. Lysates were clarified by centrifugation at 14,000×g for 10 min at 4° C. and supernatants transferred to clean tubes. A BCA assay was performed to determine the protein concentration of each lysate. A total of 30 μg of protein was mixed with sample buffer and reducing agent before being run on a 4-12% SDS-PAGE. Protein was transferred to a nitrocellulose membrane and blocked with LI-COR blocking buffer for 1 hour. Membranes were incubated overnight in primary antibody at 4° C. Following 3 washes with TBS-T, membranes were incubated for 45 minutes in LI-COR secondary antibodies. Following 2 washes in TBS-T, and one TBS wash, membranes were scanned using a LI-COR OdysseyCLx. Image studio was used for image analysis.

[6] = target: MATE2-K (Homo sapiens, UniProt Q86VL8); assay: SLC transporter inhibition in HEK293 cells
[7] = target: bile salt export pump (BSEP) (Homo sapiens, UniProt O95342); assay: Transporter inhibition; format: in vitro ADME
[8] = target: T1, human OATP1B1 (Homo sapiens, UniProt Q9Y6L6); assay: SLC transporter inhibition in HEK293 cells; format: in vitro ADME
T1 construct: expressed in transfected cells; host or cells: HEK293

[9] = target: T2, BCRP (Homo sapiens, UniProt Q9UNQ0); assay: ABC transporter inhibition, inside-out membrane vesicles; format: in vitro ADME
T2 construct: expressed in transfected cells; inside-out membrane vesicles
Protocol: The reaction was initiated with the addition of ATP or AMP to the solution and following the incubation time, the reaction was stopped by the addition of 200 μL of ice-cold washing buffer and immediate filtration via glass fiber filters mounted to a 96-well plate (filter plate). The filters were washed, dried, and the amount of substrate inside the filtered vesicles was determined by liquid scintillation counting. E3S (1 μM; Sigma-Aldrich E0251) for BCRP was used as positive control substrates.

[10] = test system: caspase 3/7 in H526 cells; assay: CaspaseGlo-3/7 activation; format: cell-based, human
Protocol: (§1) Plates were removed from incubator and treated with CaspaseGlo-3/7 (Promega, Inc) following manufacturer specifications. Plates were then read on a Biotech luminometer with 1 sec/well integration. Results were converted to Microsoft Excel and transferred to GraphPad Prism for Analysis (FIG. 22D).
as §1, with “from the” for “from”, “incubator at each specified timepoint” for “incubator”, “on” for “on a”, “27A-C).” for “22D).”

MATE2-K, sequence (Q86VL8 1-566 isoform Q86VL8-3): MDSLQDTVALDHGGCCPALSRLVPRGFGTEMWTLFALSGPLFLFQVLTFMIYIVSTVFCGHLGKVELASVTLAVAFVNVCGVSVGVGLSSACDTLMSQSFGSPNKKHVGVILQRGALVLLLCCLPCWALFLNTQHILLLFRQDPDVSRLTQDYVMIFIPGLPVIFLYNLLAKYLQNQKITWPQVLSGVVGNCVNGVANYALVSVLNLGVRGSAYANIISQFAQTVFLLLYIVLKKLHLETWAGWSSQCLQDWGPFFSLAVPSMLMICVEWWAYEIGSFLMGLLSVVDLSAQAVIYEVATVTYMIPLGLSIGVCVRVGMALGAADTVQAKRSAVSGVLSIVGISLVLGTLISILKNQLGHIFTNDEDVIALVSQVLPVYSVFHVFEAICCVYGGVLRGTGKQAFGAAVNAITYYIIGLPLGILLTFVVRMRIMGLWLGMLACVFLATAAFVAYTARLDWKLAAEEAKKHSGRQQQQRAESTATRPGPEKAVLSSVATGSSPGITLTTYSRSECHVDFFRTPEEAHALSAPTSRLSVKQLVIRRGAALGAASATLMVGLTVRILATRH
T2 sequence (Q9UNQ0 whole entry): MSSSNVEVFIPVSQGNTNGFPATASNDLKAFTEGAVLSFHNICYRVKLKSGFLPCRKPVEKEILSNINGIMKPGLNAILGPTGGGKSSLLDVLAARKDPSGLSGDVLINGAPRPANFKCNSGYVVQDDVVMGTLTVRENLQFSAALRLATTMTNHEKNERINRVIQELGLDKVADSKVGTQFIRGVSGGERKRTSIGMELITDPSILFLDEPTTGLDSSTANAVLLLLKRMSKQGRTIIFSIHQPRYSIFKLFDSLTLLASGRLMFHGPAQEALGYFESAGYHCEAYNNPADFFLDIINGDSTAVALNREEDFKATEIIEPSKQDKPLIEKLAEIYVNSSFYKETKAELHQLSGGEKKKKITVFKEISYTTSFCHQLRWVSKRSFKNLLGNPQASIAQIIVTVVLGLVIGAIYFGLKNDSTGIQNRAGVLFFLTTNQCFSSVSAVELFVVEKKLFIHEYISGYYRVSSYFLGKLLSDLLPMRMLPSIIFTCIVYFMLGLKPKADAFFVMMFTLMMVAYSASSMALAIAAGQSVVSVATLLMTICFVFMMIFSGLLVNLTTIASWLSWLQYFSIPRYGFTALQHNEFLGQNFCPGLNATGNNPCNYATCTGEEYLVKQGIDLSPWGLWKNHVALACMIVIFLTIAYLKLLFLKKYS
T1 sequence (Q9Y6L6 whole entry): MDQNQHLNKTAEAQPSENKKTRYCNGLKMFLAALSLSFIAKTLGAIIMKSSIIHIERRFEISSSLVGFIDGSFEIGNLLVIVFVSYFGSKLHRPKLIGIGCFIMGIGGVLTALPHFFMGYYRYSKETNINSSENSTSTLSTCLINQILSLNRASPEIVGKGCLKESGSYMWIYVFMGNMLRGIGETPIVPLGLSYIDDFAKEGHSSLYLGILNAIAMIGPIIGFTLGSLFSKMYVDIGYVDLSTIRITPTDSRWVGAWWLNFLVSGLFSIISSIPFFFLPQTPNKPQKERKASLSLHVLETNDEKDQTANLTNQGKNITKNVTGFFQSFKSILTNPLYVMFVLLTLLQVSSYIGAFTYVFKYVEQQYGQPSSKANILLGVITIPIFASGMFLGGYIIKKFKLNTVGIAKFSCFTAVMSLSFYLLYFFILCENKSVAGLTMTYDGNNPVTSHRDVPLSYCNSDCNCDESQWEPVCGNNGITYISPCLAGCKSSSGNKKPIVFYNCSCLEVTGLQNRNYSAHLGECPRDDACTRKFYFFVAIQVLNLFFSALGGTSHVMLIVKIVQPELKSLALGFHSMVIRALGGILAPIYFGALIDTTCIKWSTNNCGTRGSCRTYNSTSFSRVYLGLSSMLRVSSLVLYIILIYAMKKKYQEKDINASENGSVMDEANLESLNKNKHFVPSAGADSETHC
bile salt export pump (BSEP), sequence (O95342 whole entry): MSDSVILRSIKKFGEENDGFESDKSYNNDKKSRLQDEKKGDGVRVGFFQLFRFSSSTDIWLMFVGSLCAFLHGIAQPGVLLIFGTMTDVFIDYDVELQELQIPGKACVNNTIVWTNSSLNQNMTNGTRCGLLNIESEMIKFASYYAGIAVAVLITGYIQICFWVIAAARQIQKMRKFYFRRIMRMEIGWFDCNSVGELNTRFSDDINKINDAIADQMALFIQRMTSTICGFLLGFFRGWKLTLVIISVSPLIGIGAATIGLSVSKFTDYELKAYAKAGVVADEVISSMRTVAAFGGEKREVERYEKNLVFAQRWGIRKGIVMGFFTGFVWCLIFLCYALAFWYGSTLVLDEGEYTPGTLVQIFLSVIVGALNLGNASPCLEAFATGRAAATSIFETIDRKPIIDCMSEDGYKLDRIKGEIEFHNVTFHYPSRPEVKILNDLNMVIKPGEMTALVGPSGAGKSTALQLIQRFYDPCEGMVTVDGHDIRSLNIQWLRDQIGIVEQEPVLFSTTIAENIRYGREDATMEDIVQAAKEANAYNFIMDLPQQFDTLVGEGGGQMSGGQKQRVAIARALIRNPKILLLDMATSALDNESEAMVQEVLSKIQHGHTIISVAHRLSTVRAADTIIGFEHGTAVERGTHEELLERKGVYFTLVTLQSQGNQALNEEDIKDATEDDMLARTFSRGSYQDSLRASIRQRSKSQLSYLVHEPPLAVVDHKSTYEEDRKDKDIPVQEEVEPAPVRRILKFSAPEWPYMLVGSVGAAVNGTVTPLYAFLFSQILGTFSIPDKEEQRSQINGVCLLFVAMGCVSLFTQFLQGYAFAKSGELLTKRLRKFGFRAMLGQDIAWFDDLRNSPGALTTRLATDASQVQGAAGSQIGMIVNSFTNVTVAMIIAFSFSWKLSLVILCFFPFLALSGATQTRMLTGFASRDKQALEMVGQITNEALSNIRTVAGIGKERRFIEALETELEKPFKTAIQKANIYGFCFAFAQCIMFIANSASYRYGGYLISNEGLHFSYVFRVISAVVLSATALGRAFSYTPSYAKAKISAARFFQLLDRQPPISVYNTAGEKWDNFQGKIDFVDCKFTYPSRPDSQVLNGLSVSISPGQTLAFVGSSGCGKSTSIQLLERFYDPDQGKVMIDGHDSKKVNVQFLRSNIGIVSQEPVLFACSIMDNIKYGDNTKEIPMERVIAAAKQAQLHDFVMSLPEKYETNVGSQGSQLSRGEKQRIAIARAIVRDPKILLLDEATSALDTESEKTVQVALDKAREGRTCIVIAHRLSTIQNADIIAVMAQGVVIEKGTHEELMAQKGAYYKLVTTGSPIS

NS(=O)(=O)c1ccc(Nc2ncc3cc4n(c3n2)C2(CCCCC2)C(=O)NN4)cc1 [Compound I]
pRb levels [1]: decreases pRb levels in a dose-dependent manner
tumor outcome ([2]; 100 mg/kg BID, 42 days): tumor stasis
TGI ([2]; 200 mg/kg QD, 42 days): 89%
tumor outcome ([2]; 100 mpk BID and 200 mpk QD, out to 42 days): durable tumor stasis or regression
Rb1 phosphorylation and cyclin A2 levels in ex vivo tumor samples ([2]; 100 mpk BID, at least 24 hours post-final dose): substantially reduces Rb1 phosphorylation and cyclin A2 levels
body weight loss ([2]; at any point): ≤ 5%
FOB results [3]: did not affect
overall survival [4]: greatest overall survival
tumor volume ([4]; oral gavage, 28 days): reduced tumor volume the most among all treatment conditions
cyclin E (CCNE1, CCNE2) levels [5]: increase of cyclin E (CCNE1, CCNE2) amplification
IC50 [6]: 0.74 µM
Maximum Percent inhibition ([6]; MATE2-K, HEK293 cells): 69%
IC50 ([6]; human): 0.74 µM
BSEP inhibition [7]: did not inhibit
IC50 [8]: 3.81 µM
Maximum Percent inhibition ([8]; OATP1B1, HEK293 cells): 93%
IC50 ([9]; BCRP, inside-out membrane vesicles): 0.422 µM
IC50 ([9]; human, inside-out membrane vesicles from cells overexpressing BCRP, probe E3S (1 μM)): 0.422 µM
caspase 3/7 activation ([10]; 24 hours): no appreciable caspase 3/7 activation
IC50 ([10]; 72 hours): 0.129 µM
IC50 ([10]; Homo sapiens, NCI-H526, 48 h, 48 hours): 0.181 µM
IC50 ([10]; Homo sapiens, NCI-H526, 72 h, 72 hours): 0.116 µM

Source: US20250199015A1, “CYCLIN-DEPENDENT KINASE 2 INHIBITORS FOR MEDICAL TREATMENT” (INCYCLIX BIO, LLC, priority 2022, published 2025)
